In patent publication US12410208B2, “(2-acetamidyl)thio-beta-D-galactopyranoside derivatives” (Idorsia Pharmaceuticals Ltd, priority 2020, dated 2025):

Legend:
[1] = biological target: biotinylated human Gal-3 (hGal-3) (Homo sapiens, UniProt P17931); test: Competitive binding assay: biotinylated hGal-3 binding to microplate-adsorbed asialofetuin (ASF), spectrophotometric; settings: Gal-3 inhibition, Table 4; read-out: IC50
Outline: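 Competitive binding of biotinylated hGal-3 to plate-adsorbed asialofetuin was measured with serially diluted compounds over 3 h at 4° C. Bound protein was detected with streptavidin-peroxidase and ABTS substrate by absorbance. IC50 values are means of several measurements.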

human Gal-1 (hGal-1) = human Gal-1 (hGal-1) (Homo sapiens, UniProt P09382); test: Competitive binding assay: biotinylated hGal-1 binding to microplate-adsorbed asialofetuin (ASF), spectrophotometric; settings: hGal-1 binding to asialofetuin; Table 15; R and S epimers of selected Examples also listed; read-out: IC50 (Galectin-1 inhibition)
Outline: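 Biotinylated hGal-1 (300-1000 ng/mL) incubated with compound on asialofetuin-coated plates 3 hours at 4 °C, washed, then streptavidin-peroxidase (80 ng/mL) 1 hour at 4 °C. ABTS substrate read spectrophotometrically; IC50 reported as mean of several measurements.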

human Gal-1 (hGal-1), sequence (P09382 whole entry): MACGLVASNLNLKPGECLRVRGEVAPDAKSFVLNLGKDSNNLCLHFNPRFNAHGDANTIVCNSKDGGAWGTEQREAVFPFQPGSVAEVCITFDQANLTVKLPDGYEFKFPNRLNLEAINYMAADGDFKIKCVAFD
biotinylated human Gal-3 (hGal-3), sequence (P17931 whole entry): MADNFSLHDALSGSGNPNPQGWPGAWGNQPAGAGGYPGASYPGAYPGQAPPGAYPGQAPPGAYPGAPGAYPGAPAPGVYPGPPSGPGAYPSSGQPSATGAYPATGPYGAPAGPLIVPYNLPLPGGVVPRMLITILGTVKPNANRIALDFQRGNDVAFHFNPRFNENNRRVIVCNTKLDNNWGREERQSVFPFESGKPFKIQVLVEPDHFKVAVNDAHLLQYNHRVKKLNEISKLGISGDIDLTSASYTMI

SMILES	IC50 [1]	IC50 (human Gal-1 (hGal-1))
CN(Cc1ccccc1)C(=O)[C@H](S[C@@H]1O[C@H](CO)[C@H](O)[C@H](n2cc(-c3cc(F)c(F)c(F)c3)nn2)[C@H]1O)C1(O)CCOCC1 [Example 2.41.207R., (R)-N-Benzyl-2-(((2S,3R,4S,5R,6R)-3,5-dihydroxy-6-(hydroxymethyl)-4-(4-(3,4,5-trifluorophenyl)-1H-1,2,3-triazol-1-yl)tetrahydro-2H-pyran-2-yl)thio)-2-(4-hydroxytetrahydro-2H-pyran-4-yl)-N-methylacetamide]	8.23 µM	51.5 µM
O=C(C(S[C@@H]1O[C@H](CO)[C@H](O)[C@H](n2cc(-c3cc(F)c(F)c(F)c3)nn2)[C@H]1O)C1(O)CCOCC1)N1CCCCC1 (stereo partly drawn) [Example 2.41.208., 2-(((2S,3R,4S,5R,6R)-3,5-Dihydroxy-6-(hydroxymethyl)-4-(4-(3,4,5-trifluorophenyl)-1H-1,2,3-triazol-1-yl)tetrahydro-2H-pyran-2-yl)thio)-2-(4-hydroxytetrahydro-2H-pyran-4-yl)-1-(piperidin-1-yl)ethan-1-one]	0.09 µM	0.22 µM
O=C([C@H](S[C@@H]1O[C@H](CO)[C@H](O)[C@H](n2cc(-c3cc(F)c(F)c(F)c3)nn2)[C@H]1O)C1(O)CCOCC1)N1CCCCC1 [Example 2.41.208R., (R)-2-(((2S,3R,4S,5R,6R)-3,5-Dihydroxy-6-(hydroxymethyl)-4-(4-(3,4,5-trifluorophenyl)-1H-1,2,3-triazol-1-yl)tetrahydro-2H-pyran-2-yl)thio)-2-(4-hydroxytetrahydro-2H-pyran-4-yl)-1-(piperidin-1-yl)ethan-1-one]	1.65 µM	32.3 µM
O=C(C(S[C@@H]1O[C@H](CO)[C@H](O)[C@H](n2cc(-c3cc(F)c(F)c(F)c3)nn2)[C@H]1O)C1(O)CCOCC1)N1CCc2ccccc21 (stereo partly drawn) [Example 2.41.209., 2-(((2S,3R,4S,5R,6R)-3,5-Dihydroxy-6-(hydroxymethyl)-4-(4-(3,4,5-trifluorophenyl)-1H-1,2,3-triazol-1-yl)tetrahydro-2H-pyran-2-yl)thio)-2-(4-hydroxytetrahydro-2H-pyran-4-yl)-1-(indolin-1-yl)ethan-1-one]	0.15 µM	0.31 µM
O=C([C@@H](S[C@@H]1O[C@H](CO)[C@H](O)[C@H](n2cc(-c3cc(F)c(F)c(F)c3)nn2)[C@H]1O)C1(O)CCOCC1)N1CCc2ccccc21 [Example 2.41.209S., (S)-2-(((2S,3R,4S,5R,6R)-3,5-Dihydroxy-6-(hydroxymethyl)-4-(4-(3,4,5-trifluorophenyl)-1H-1,2,3-triazol-1-yl)tetrahydro-2H-pyran-2-yl)thio)-2-(4-hydroxytetrahydro-2H-pyran-4-yl)-1-(indolin-1-yl)ethan-1-one]	0.1 µM	0.17 µM
CN(Cc1cccs1)C(=O)C(S[C@@H]1O[C@H](CO)[C@H](O)[C@H](n2cc(-c3cc(F)c(F)c(F)c3)nn2)[C@H]1O)C1(O)CCOCC1 (stereo partly drawn) [Example 2.41.210., 2-(((2S,3R,4S,5R,6R)-3,5-dihydroxy-6-(hydroxymethyl)-4-(4-(3,4,5-trifluorophenyl)-1H-1,2,3-triazol-1-yl)tetrahydro-2H-pyran-2-yl)thio)-2-(4-hydroxytetrahydro-2H-pyran-4-yl)-N-methyl-N-(thiophen-2-ylmethyl)acetamide]	0.44 µM	1.12 µM
O=C(C(S[C@@H]1O[C@H](CO)[C@H](O)[C@H](n2cc(-c3cc(F)c(F)c(F)c3)nn2)[C@H]1O)C1(O)CCOCC1)N1CCCC1 (stereo partly drawn) [Example 2.41.211., 2-(((2S,3R,4S,5R,6R)-3,5-Dihydroxy-6-(hydroxymethyl)-4-(4-(3,4,5-trifluorophenyl)-1H-1,2,3-triazol-1-yl)tetrahydro-2H-pyran-2-yl)thio)-2-(4-hydroxytetrahydro-2H-pyran-4-yl)-1-(pyrrolidin-1-yl)ethan-1-one]	0.13 µM	0.33 µM
CN(CC1CC1)C(=O)C(S[C@@H]1O[C@H](CO)[C@H](O)[C@H](n2cc(-c3cc(F)c(F)c(F)c3)nn2)[C@H]1O)C1(O)CCOCC1 (stereo partly drawn) [Example 2.41.218., N-(Cyclopropylmethyl)-2-(((2S,3R,4S,5R,6R)-3,5-dihydroxy-6-(hydroxymethyl)-4-(4-(3,4,5-trifluorophenyl)-1H-1,2,3-triazol-1-yl)tetrahydro-2H-pyran-2-yl)thio)-2-(4-hydroxytetrahydro-2H-pyran-4-yl)-N-methylacetamide]	0.8 µM	0.19 µM
CN(CC1CC1)C(=O)[C@H](S[C@@H]1O[C@H](CO)[C@H](O)[C@H](n2cc(-c3cc(F)c(F)c(F)c3)nn2)[C@H]1O)C1(O)CCOCC1 [Example 2.41.218R., (R)-N-(Cyclopropylmethyl)-2-(((2S,3R,4S,5R,6R)-3,5-dihydroxy-6-(hydroxymethyl)-4-(4-(3,4,5-trifluorophenyl)-1H-1,2,3-triazol-1-yl)tetrahydro-2H-pyran-2-yl)thio)-2-(4-hydroxytetrahydro-2H-pyran-4-yl)-N-methylacetamide]	2.25 µM	19 µM

Now those with a lower IC50 [1], led by results:

IC50 [1]	IC50 (human Gal-1 (hGal-1))	SMILES
0.02 µM	0.8 µM	O=C([C@@H](S[C@@H]1O[C@H](CO)[C@H](O)[C@H](n2cc(-c3cc(F)c(F)c(F)c3)nn2)[C@H]1O)C1(O)CCOCC1)N1CCCCC1 [Example 2.41.208S., (S)-2-(((2S,3R,4S,5R,6R)-3,5-Dihydroxy-6-(hydroxymethyl)-4-(4-(3,4,5-trifluorophenyl)-1H-1,2,3-triazol-1-yl)tetrahydro-2H-pyran-2-yl)thio)-2-(4-hydroxytetrahydro-2H-pyran-4-yl)-1-(piperidin-1-yl)ethan-1-one]
0.08 µM	0.2 µM	CN(CC1CCCC1)C(=O)[C@H](S[C@@H]1O[C@H](CO)[C@H](O)[C@H](n2cc(-c3cc(F)c(F)c(F)c3)nn2)[C@H]1O)C1(O)CCOCC1 [Example 2.41.212., (R)-N-(cyclopentylmethyl)-2-(((2S,3R,4S,5R,6R)-3,5-dihydroxy-6-(hydroxymethyl)-4-(4-(3,4,5-trifluorophenyl)-1H-1,2,3-triazol-1-yl)tetrahydro-2H-pyran-2-yl)thio)-2-(4-hydroxytetrahydro-2H-pyran-4-yl)-N-methylacetamide]
0.08 µM	0.2 µM	CN(CC1CCOCC1)C(=O)C(S[C@@H]1O[C@H](CO)[C@H](O)[C@H](n2cc(-c3cc(F)c(F)c(F)c3)nn2)[C@H]1O)C1(O)CCOCC1 (stereo partly drawn) [Example 2.41.213., 2-(((2S,3R,4S,5R,6R)-3,5-dihydroxy-6-(hydroxymethyl)-4-(4-(3,4,5-trifluorophenyl)-1H-1,2,3-triazol-1-yl)tetrahydro-2H-pyran-2-yl)thio)-2-(4-hydroxytetrahydro-2H-pyran-4-yl)-N-methyl-N-((tetrahydro-2H-pyran-4-yl)methyl)acetamide]
0.03 µM	0.12 µM	CCN(CC1CCOCC1)C(=O)C(S[C@@H]1O[C@H](CO)[C@H](O)[C@H](n2cc(-c3cc(F)c(F)c(F)c3)nn2)[C@H]1O)C1(O)CCOCC1 (stereo partly drawn) [Example 2.41.214., 2-(((2S,3R,4S,5R,6R)-3,5-Dihydroxy-6-(hydroxymethyl)-4-(4-(3,4,5-trifluorophenyl)-1H-1,2,3-triazol-1-yl)tetrahydro-2H-pyran-2-yl)thio)-N-ethyl-2-(4-hydroxytetrahydro-2H-pyran-4-yl)-N-((tetrahydro-2H-pyran-4-yl)methyl)acetamide]
0.06 µM	0.37 µM	CN(Cc1cn(C)cn1)C(=O)C(S[C@@H]1O[C@H](CO)[C@H](O)[C@H](n2cc(-c3cc(F)c(F)c(F)c3)nn2)[C@H]1O)C1(O)CCOCC1 (stereo partly drawn) [Example 2.41.215., 2-(((2S,3R,4S,5R,6R)-3,5-Dihydroxy-6-(hydroxymethyl)-4-(4-(3,4,5-trifluorophenyl)-1H-1,2,3-triazol-1-yl)tetrahydro-2H-pyran-2-yl)thio)-2-(4-hydroxytetrahydro-2H-pyran-4-yl)-N-methyl-N-((1-methyl-1H-imidazol-4-yl)methyl)acetamide]
0.06 µM	0.38 µM	CN(CCC1CCOCC1)C(=O)C(S[C@@H]1O[C@H](CO)[C@H](O)[C@H](n2cc(-c3cc(F)c(F)c(F)c3)nn2)[C@H]1O)C1(O)CCOCC1 (stereo partly drawn) [Example 2.41.216., 2-(((2S,3R,4S,5R,6R)-3,5-Dihydroxy-6-(hydroxymethyl)-4-(4-(3,4,5-trifluorophenyl)-1H-1,2,3-triazol-1-yl)tetrahydro-2H-pyran-2-yl)thio)-2-(4-hydroxytetrahydro-2H-pyran-4-yl)-N-methyl-N-(2-(tetrahydro-2H-pyran-4-yl)ethyl)acetamide]
0.02 µM	0.11 µM	CN(CCC1CCOCC1)C(=O)[C@@H](S[C@@H]1O[C@H](CO)[C@H](O)[C@H](n2cc(-c3cc(F)c(F)c(F)c3)nn2)[C@H]1O)C1(O)CCOCC1 [Example 2.41.216S., (S)-2-(((2S,3R,4S,5R,6R)-3,5-Dihydroxy-6-(hydroxymethyl)-4-(4-(3,4,5-trifluorophenyl)-1H-1,2,3-triazol-1-yl)tetrahydro-2H-pyran-2-yl)thio)-2-(4-hydroxytetrahydro-2H-pyran-4-yl)-N-methyl-N-(2-(tetrahydro-2H-pyran-4-yl)ethyl)acetamide]
0.06 µM	0.22 µM	CN(CCC1CC1)C(=O)C(S[C@@H]1O[C@H](CO)[C@H](O)[C@H](n2cc(-c3cc(F)c(F)c(F)c3)nn2)[C@H]1O)C1(O)CCOCC1 (stereo partly drawn) [Example 2.41.217., N-(2-Cyclopropylethyl)-2-(((2S,3R,4S,5R,6R)-3,5-dihydroxy-6-(hydroxymethyl)-4-(4-(3,4,5-trifluorophenyl)-1H-1,2,3-triazol-1-yl)tetrahydro-2H-pyran-2-yl)thio)-2-(4-hydroxytetrahydro-2H-pyran-4-yl)-N-methylacetamide]
